Data from US20160263073A1, “MONOACYLGLYCEROLS FOR USE IN THE TREATMENT OF MALABSORPTION HAVING A MECHANICAL BASIS” (NESTEC S.A., priority 2013, published 2016).

Key:
[1] = lipid maldigestion or malabsorption rat model (XENICAL-induced): EPA level in red blood cell lipids; type: in vivo; settings: rats; for level of EPA incorporated in red blood cells: day 7, with XENICAL (ORLISTAT), FIG. 2
Description: The concept was tested in a lipid maldigestion or malabsorption rat model. The maldigestion or malabsorption condition was obtained using XENICAL® (ORLISTAT), a pancreatic and gastric lipases inhibitor (tetrahydrolipstatin; see FIG. 7). Rats were fed during 21 days with long-chain polyunsaturated fatty acid (LC-PUFA) supplements containing mainly eicosapentaenoic (EPA) acid. Fish oil was used as a source of triacylglycerols, and different EPA glycerides were evaluated. XENICAL® (ORLISTAT) was given at a level sufficient to decrease lipid absorption by 40%. A group receiving fish oil without XENICAL® (ORLISTAT) was used as a positive control. At different time intervals (D3, D7, […]), the fatty acid profiles of red blood cell and plasma lipids were determined. At the end of the experiment, the fatty acid profiles of different tissues were determined. The main objective was to follow the level of EPA in red blood cell and plasma lipids. The main comparison evaluated was the difference in EPA level between the group receiving EPA-containing sn-1(3) MAG in combination with XENICAL® (ORLISTAT) and the positive control group (fish oil+XENICAL® (ORLISTAT)). […] This comparison corroborates the validity of the model.

[2] = clinical study: sn-1(3) MAG versus fish oil (TAG) in delivering EPA under lipid maldigestion induced by XENICAL; type: in vivo, human
Description: This clinical study compared the efficacy of sn-1(3) MAG and fish oil (TAG) in delivering EPA in humans under lipid maldigestion conditions induced by XENICAL® (ORLISTAT). The comparison was tested in volunteers having a BMI of 37-40 kg/m^2 and treated with XENICAL® (ORLISTAT) to induce lipid maldigestion or not treated with XENICAL® (ORLISTAT). The primary objective was to assess accretion of EPA in erythrocytes over 21 days when consumed as fish oil (TAG) or sn-1(3) MAG. The secondary objectives were to assess accretion of EPA in plasma over 21 days and also to assess the pharmacokinetics of EPA after an acute dose either in the form of sn-1(3) MAG or TAG (AUC in chylomicrons over 10 hours postprandial).

Structure (SMILES) | EPA incorporation in red blood cells ([1]; day 7, fish oil with XENICAL compared with fish oil without XENICAL) | incorporation of LC-PUFAs in tissue ([1]; conditions of lipid maldigestion or malabsorption) | level of EPA incorporated in red blood cells ([1]; compared with fish oil in combination with XENICAL, all P values lower than 0.05) | level of EPA incorporated in red blood cells ([1]; compared with the fish oil group without XENICAL) | chronic effect: accretion of EPA in erythrocytes after 21 days ([2]; humans, with XENICAL, in comparison to fish oil and XENICAL, p=0.0001, FIG. 5) | chronic effect: accretion of EPA in plasma after 21 days ([2]; humans, with XENICAL, relative to fish oil and XENICAL, p=0.0003, FIG. 6) | carrier for EPA ([2]; obese subjects treated with XENICAL, compared with fish oil (TAG))
CCCCCCCCCCC[C@@H](C[C@@H]1OC(=O)[C@H]1CCCCCC)OC(=O)[C@H](CC(C)C)NC=O [XENICAL® (ORLISTAT), tetrahydrolipstatin, reference compound] | decreases EPA incorporation in red blood cells | – | – | – | – | – | –
CC/C=C\C/C=C\C/C=C\C/C=C\C/C=C\CCCC(=O)OCC(O)CO (stereo not shown) [sn-1(3) MAG, sn-1(3)-monoeicosapentaenoylglycerol] | – | improved | statistically higher | even higher than the fish oil group | statistically significant | statistically significant | better carrier for EPA than fish oil (TAG)
